Laboratory results reported in patent US6211373A, “Phenyl urea antagonists of the IL-8 receptor” (SmithKline Beecham Corporation, priority 1998, dated 2001).

Target: T1, recombinant human IL-8 type b receptor (IL-8 Rb, Type II, permissive receptor) (Homo sapiens, UniProt P25025)
T1 construct: membranes
T1 sequence (P25025 1-360): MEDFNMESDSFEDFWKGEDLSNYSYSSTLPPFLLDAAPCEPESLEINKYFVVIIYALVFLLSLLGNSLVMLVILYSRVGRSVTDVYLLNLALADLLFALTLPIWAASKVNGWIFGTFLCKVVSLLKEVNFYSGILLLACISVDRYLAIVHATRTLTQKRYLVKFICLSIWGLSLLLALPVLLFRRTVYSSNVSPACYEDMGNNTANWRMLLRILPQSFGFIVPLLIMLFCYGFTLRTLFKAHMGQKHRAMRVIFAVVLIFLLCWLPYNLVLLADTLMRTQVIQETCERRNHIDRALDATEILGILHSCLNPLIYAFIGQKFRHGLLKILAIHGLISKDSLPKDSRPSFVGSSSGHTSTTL
Test: Receptor binding assay, [125I] IL-8, permissive model
Excerpt: [^125 I] IL-8 (human recombinant) was obtained from Amersham Corp., Arlington Heights, Ill., with specific activity 2000 Ci/mmol. Gro-a was obtained from NEN-New England Nuclear. All other chemicals were of analytical grade. High levels of recombinant human IL-8 type a and b receptors were individually expressed in Chinese hamster ovary cells as described previously (Holmes, et al., Science, 1991, 253, 1278). The Chinese hamster ovary membranes were homogenized according to a previously described protocol (Haour, et al., J Biol Chem., 249 pp 2195-2205 (1974)). Except that the homogenization buffer was changed to 10 mM Tris-HCL, 1 mM MgSO4, 0.5 mM EDTA (ethylene-diaminetetra-acetic acid), 1 mMPMSF (a-toluenesulphonyl fluoride), 0.5 mg/L Leupeptin, pH 7.5. Membrane protein concentration was determined using Pierce Co. micro-assay kit using bovine serum albumin as a standard. All assays were performed in a 96-well micro plate format. Each reaction mixture contained ^125 I IL-8 (0.25 nM) or ^125 I Gro-a and 0.5 μg/mL of IL-8Ra or 1.0 μg/mL of IL-8Rb membranes in 20 mM Bis-Trispropane and 0.4 mM Tris HCl buffers, pH 8.0, containing 1.2 mM MgSO4, 0.1 mM EDTA, 25 mM NaCl and 0.03% CHAPS. […] The filter was then dried and counted on the Betaplate liquid scintillation counter. […]

- level at which found to be active (IL-8 receptor inhibition): about 75 μg/mL
SMILES: Cc1cc(Cl)ccc1NC(=O)Nc1ccccc1C(=O)O [1-(2-Carboxyphenyl)-3-(4-chloro-2-methylphenyl)urea]
